Some test systems named below: NCI-H522 lung; SNB-19 CNS; A498 renal; CAKI-1 renal; NCI-H23 lung; PC-3 prostate; KM12 colon; OVCAR-4 ovarian; SN12C renal; HCT-15 colon.
Common to all, as to experiment: NCI tumour cell line growth inhibition, 48 h

Values joined by “and” are separate entries in the source; they are usually repeats but may differ in a detail not shown here. Equal entries are not always repeated.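 Step 1: Grow cells in 96-well plates. Step 2: Expose to compound for 48 hours at 5 concentrations. Step 3: Interpolate endpoints linearly; if unreached, use highest concentration. The concentration for 50% growth inhibition is given as GI50. TGI denotes the concentration required for complete inhibition of growth.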 A value given as a limit tells only on which side of the number the result lay.

For the compound `COc1ccc(-c2ccc3c(NC(=O)C4CC4)n[nH]c3n2)cc1`, the GI50 in the assay with NCI-H522 lung is more than 22.9 µM; in the assay with SNB-19 CNS, 15.9 µM; in the assay with A498 renal, more than 25 µM; in the assay with CAKI-1 renal, more than 25 µM; in the assay on NCI-H23 lung it was more than 25 µM; in the assay on PC-3 prostate it was more than 25 µM. The GI50 with KM12 colon, in the assay on OVCAR-4 ovarian, in the assay on SN12C renal and with HCT-15 colon was more than 25 µM each time. Also, the TGI with NCI-H522 lung, with SNB-19 CNS, in the assay with A498 renal, in the assay with CAKI-1 renal, with NCI-H23 lung and in the assay with PC-3 prostate was more than 25 µM throughout. The TGI in the assay on KM12 colon, in the assay with OVCAR-4 ovarian, with SN12C renal and in the assay with HCT-15 colon was more than 25 µM in each case.
As to `CN(C)c1ccc(/C=C2\C[C@H]3[C@@H]4CC=C5C[C@@H](N6CCCC6)CC[C@]5(C)[C@H]4CC[C@]3(C)[C@H]2O)cc1`, the TGI in the assay with NCI-H522 lung was 2.25 µM; in the assay on SNB-19 CNS, 6.94 µM and 9.08 µM; in the assay with A498 renal, 2.1 µM and 8.92 µM; with CAKI-1 renal it was 3.88 µM and 23.9 µM; with NCI-H23 lung, 9.93 µM and 58 µM; in the assay on PC-3 prostate it was 50 µM and 12 µM. Moreover, the TGI in the assay with KM12 colon is 10.7 µM and 50.9 µM; with OVCAR-4 ovarian, 2 µM and 5.96 µM; in the assay on SN12C renal, 3.3 µM and 5.6 µM; with HCT-15 colon, 5.51 µM and 22.3 µM. Besides, the GI50 in the assay with SNB-19 CNS is 2.41 µM; in the assay with A498 renal it was 2.89 µM; in the assay with CAKI-1 renal it was 1.99 µM; with NCI-H23 lung, 16.8 µM; with PC-3 prostate, 2.82 µM; in the assay on KM12 colon it was 5.48 µM. In addition, the GI50 is 2.16 µM in the assay with OVCAR-4 ovarian, 2.42 µM in the assay on SN12C renal and 3.43 µM in the assay with HCT-15 colon.
On to `Cc1ccc2c(c1)C(=O)c1c-2n(CCCN)c(=O)c2cc([N+](=O)[O-])ccc12`, for which the GI50 in the assay with NCI-H522 lung was 0.2 µM; in the assay with SNB-19 CNS it was 0.178 µM; in the assay on A498 renal, 5.68 µM; with CAKI-1 renal, 0.0716 µM; with NCI-H23 lung, 0.356 µM; with PC-3 prostate, 0.437 µM. Moreover, the GI50 with KM12 colon is 0.433 µM; in the assay with OVCAR-4 ovarian it was 0.605 µM; in the assay with SN12C renal, 0.281 µM; in the assay on HCT-15 colon, 0.351 µM. Further, the TGI in the assay with NCI-H522 lung is 0.985 µM; in the assay on SNB-19 CNS it was 0.706 µM; in the assay on A498 renal it was 17.1 µM; in the assay on CAKI-1 renal it was 0.419 µM; in the assay on NCI-H23 lung, 1.16 µM; in the assay with PC-3 prostate it was 1.17 µM. Also, the TGI with KM12 colon was 1.23 µM; in the assay with OVCAR-4 ovarian, 1.26 µM; in the assay with SN12C renal, 1.02 µM; with HCT-15 colon, 1.01 µM.
`CCN(CC)CCN1C(=O)c2c(c(C)c3c(oc4cc(O)ccc43)c2C)C1=O`: the GI50 in the assay on NCI-H522 lung was 2.11 µM; in the assay on SNB-19 CNS it was 1.68 µM; with A498 renal it was 1.69 µM; in the assay on CAKI-1 renal, 1.66 µM; in the assay on NCI-H23 lung, 1.7 µM; with PC-3 prostate, 1.5 µM. Also, the GI50 with KM12 colon is 1.82 µM; in the assay on OVCAR-4 ovarian, 1.69 µM; in the assay with SN12C renal, 1.63 µM; in the assay with HCT-15 colon it was 1.69 µM. For the same compound, the TGI with NCI-H522 lung turned out to be 4.71 µM; with SNB-19 CNS, 3.21 µM; in the assay with A498 renal, 3.12 µM; in the assay with CAKI-1 renal, 3.06 µM; in the assay with NCI-H23 lung it was 3.2 µM; in the assay with PC-3 prostate it was 3.22 µM. Further, the TGI in the assay with KM12 colon came to 3.74 µM; in the assay with OVCAR-4 ovarian it was 3.37 µM; with SN12C renal it was 3.11 µM; in the assay with HCT-15 colon, 3.32 µM.
As to `CCN1CCN(c2nc(NNC(=O)Cc3ccccc3)nc(N3CCN(C(c4ccccc4)c4ccccc4)CC3)n2)CC1`, the GI50 with NCI-H522 lung is 1.99 µM; with SNB-19 CNS it was 3.35 µM; with A498 renal, 7.3 µM; in the assay on CAKI-1 renal, 1.7 µM; in the assay on NCI-H23 lung, 5.51 µM; in the assay with PC-3 prostate it was 2.51 µM. Further, the GI50 is 2.07 µM with KM12 colon, 4.71 µM in the assay on OVCAR-4 ovarian, 1.85 µM with SN12C renal and 1.9 µM in the assay on HCT-15 colon. Also, the TGI in the assay with NCI-H522 lung was 4.18 µM; in the assay with SNB-19 CNS it was 11.7 µM; in the assay with A498 renal, 20.9 µM; in the assay with CAKI-1 renal, 3.31 µM; in the assay with NCI-H23 lung, 18.8 µM; in the assay with PC-3 prostate it was 8.61 µM. For the same compound, the TGI in the assay with KM12 colon is 4.35 µM; in the assay with OVCAR-4 ovarian, 17.5 µM; with SN12C renal, 3.44 µM; with HCT-15 colon it was 3.76 µM.
On to `O=C(c1ccccc1)C1C(C(=O)c2ccccc2)N1Cc1ccccc1` (centres undefined), for which the TGI with NCI-H522 lung is 74.6 µM; in the assay with SNB-19 CNS, more than 100 µM; with A498 renal it was more than 100 µM; in the assay with CAKI-1 renal, more than 100 µM; in the assay on NCI-H23 lung it was more than 100 µM; in the assay on PC-3 prostate it was more than 100 µM. The TGI in the assay on KM12 colon is more than 100 µM; in the assay with OVCAR-4 ovarian, more than 100 µM; in the assay on SN12C renal, 95.1 µM; in the assay with HCT-15 colon, more than 100 µM.
For `COc1ccc(OC)c(-c2nc3sccn3c2/C=C2/C(=O)Nc3ccc(Cl)cc32)c1`, the GI50 with NCI-H522 lung is 21.5 µM; with SNB-19 CNS, 33.6 µM; with A498 renal it was 20.8 µM; with CAKI-1 renal it was 30.1 µM; in the assay on NCI-H23 lung, 21.4 µM; with PC-3 prostate, 27.2 µM. Moreover, the GI50 with KM12 colon is 35.8 µM; in the assay on OVCAR-4 ovarian, 26.8 µM; in the assay on SN12C renal it was 35.2 µM; in the assay with HCT-15 colon, 23.1 µM. The TGI in the assay with NCI-H522 lung was 51.6 µM; with SNB-19 CNS, more than 100 µM; with A498 renal, 38.8 µM; in the assay with CAKI-1 renal it was more than 100 µM; in the assay on NCI-H23 lung, 51.4 µM; with PC-3 prostate, more than 100 µM. The TGI in the assay with KM12 colon is more than 100 µM; with OVCAR-4 ovarian, 73.9 µM; with SN12C renal, more than 100 µM; in the assay with HCT-15 colon, 58.9 µM.
With `S=c1nc(-c2nc(=S)[nH]c3c2CCCCCCCCCC3)c2c([nH]1)CCCCCCCCCC2`, the TGI with NCI-H522 lung, in the assay on SNB-19 CNS, with A498 renal, in the assay with CAKI-1 renal, in the assay on NCI-H23 lung and in the assay with PC-3 prostate was more than 100 µM throughout. Also, the TGI in the assay with KM12 colon, with OVCAR-4 ovarian, in the assay on SN12C renal and with HCT-15 colon was more than 100 µM throughout.

These data come from PubChem BioAssay (NCI).
